The values below come from patent US8658648B2, “Modified chloroquines with single ring moiety or fused ring moiety” (DesignMedix, Inc., priority 2008, dated 2014).

Data set [1] deals with D6 (CQ^S) P. falciparum strain. Description: In vitro fluorescence (Sybr Green I) assay for IC50 against D6 strain. The format is cell-based. Particulars: Plasmodium falciparum, read-out: IC50-D6. An excerpt: (§1) This method employs fluorescent detection of the level of parasitemia in cultured red blood cells and can be automated for high-throughput screening of antimalarial RCQs. This exemplary method allows the inhibitory agent (such as a MCQ) to be in contact with the parasite for an entire developmental cycle without purine starvation, which is in contrast to the traditional ^3H-hypoxanthine method (Desjardins et al. 1979. Antimicrob. Agents Chemother. 16(6):710-718, which is incorporated herein by reference in its entirety). Briefly, to perform the Smilkstein et al. method, an initial parasitemia of approximately 0.2% is attained by adding uninfected red blood cells (RBCs) to a stock culture of Plasmodium-infected RBCs. […] After a period of incubation (such as about 72 hours), a sufficient amount (e.g., 100 μL) of a fluorescent DNA binding dye-detergent mixture (e.g., Sybr Green I dye-detergent mixture) to lyse cells and bind to DNA is added to the reactions. Because uninfected RBCs have no DNA, only parasite DNA (in infected RBCs) is available for binding to the fluorescent dye (e.g., Sybr Green I). Samples are then incubated in the dark for a period of time (e.g., one hour), followed by measurement of levels of fluorescence. For Sybr Green 1, excitation and emission wavelength are 485 and 530 nm, respectively. Fluorescence readings, which represent the amount of parasite DNA in the sample, can be plotted against the Log [drug] and fit to a curve by nonlinear regression to obtain the IC50 value for the tested compound.
(§2) An in vitro fluorescence assay for determining IC50 of antimalarial drugs was performed as previously described by Smilkstein et al. (2004. Antimicrob. Agents Chemother. 48(5):1803-1806). This procedure can be automated for high-throughput screening of the antimalarial activities of RCQs described herein. This method also allows the tested agent (e.g., a MCQ) to be in contact with the parasite for an entire developmental cycle without purine starvation (which occurs with the commonly used ^3H-hypoxanthine method; see, e.g., Desjardins et al. 1979. Antimicrob. Agents Chemother. 16, (6):710-7188).
(§3) Briefly, an initial parasitemia of approximately 0.2% was attained by addition of uninfected red blood cells to a stock culture of cells infected with Dd2 (CQ^R), 7G8 (CQ^R), or D6 (CQ^S) P. falciparum strains. A 10 mM solution of a test compound (in DMSO) was prepared. The test compound (at a final concentration from 10^−11 to 10^−4 M) and infected red blood cells (at a final concentration of 2% (v/v)) were mixed in 100 μL samples in individual wells of a 96-well plate. Each sample was prepared in triplicate. A triplicate set of reactions containing CQ (instead of the test compound) was included as a control. After a 72 hour incubation period, Sybr Green I dye-detergent mixture (100 μL) was added to each reaction. The samples were further incubated for an hour in the dark, and then placed in a 96-well fluorescence plate reader (Gemini-EM, […]) and analyzed with excitation and emission wavelength bands at 485 and 530 nm, respectively. Fluorescence readings were plotted against the Log [drug], and curve fitting performed by nonlinear regression to find the IC50 value.

Data set [2] has as its system 7G8 (CQ^R) P. falciparum strain. The data set can be described thus: In vitro fluorescence (Sybr Green I) assay for IC50 against 7G8 strain. The class given is cell-based. To be noted: Plasmodium falciparum, read-out: IC50-7G8.
Source text: as §1, §2, §3

In data set [3] the test system is Dd2 (CQ^R) P. falciparum strain. The data set can be described thus: In vitro fluorescence (Sybr Green I) assay for IC50 against Dd2 strain. The class given is cell-based. Particulars: Plasmodium falciparum, read-out: IC50-Dd2.
Source text: as §1, §2, §3

For data set [4], the system named is mitogen-induced marine spleen lymphocytes. The class given is cell-based. Particulars: LC50; mouse spleen lymphocytes, 72 hours incubation, then resazurin 24 hours. How it is done: Mouse spleen lymphocytes were isolated from C57B1/6J mice by teasing tissues on a metallic sieve screen. […] Two hundred (200) μl isolated cells were then seeded in separate wells of a 96-well flat-bottom tissue culture plate at a density of 2×10^5 cells per well. […] After 72 hours incubation in a humidified atmosphere at 37° C. and 5% CO2, a solution of resazurin PBS was added to a final concentration 10 μM, and the plates were returned to the incubator for another 24 hours. Resazurin is a substrate which changes color in response to metabolic activity (such as that found in living cells). […] LC50 values were determined from plots of florescence versus drug concentration using non-linear regression by Prism software.
For orientation: The colour change of resazurin is a common sign of viable cells or microbes.

For a further data set, the system named is P. falciparum strain D6. Particulars: cited from earlier work. Further: key: S = sensitive; R = resistant; S/R = intermediate level of resistance.
A further data set concerns P. falciparum strain Dd2. To be noted: cited from earlier work. Further: key: S = sensitive; R = resistant; S/R = intermediate level of resistance.
The subject of another data set is P. falciparum strain W2. To be noted: cited from earlier work.
Data set [5] relates to P. falciparum strain FCR3. Particulars: cited from earlier work.
Data set [6] concerns P. falciparum strain TM91C235. Particulars: cited from earlier work. Further: key: S = sensitive; R = resistant; S/R = intermediate level of resistance.
[7] abbreviates: Erythrocyte, D6 (CQ^S) strain in infected red blood cells, 72 hour incubation.
Setting [8] is: Erythrocyte, 7G8 (CQ^R) strain in infected red blood cells, 72 hour incubation.
The mark [9] stands for this setting: Erythrocyte, Dd2 (CQ^R) strain in infected red blood cells, 72 hour incubation.

SMILES strings stand for the structures. Where two headings read alike, the source gives them in different places.
Wherever Drug susceptibility of P. falciparum strain FCR3 is given: key: S = sensitive; R = resistant; S/R = intermediate level of resistance.
Wherever Drug susceptibility of P. falciparum strain W2 is given: key: S = sensitive; R = resistant; S/R = intermediate level of resistance.

On to `Clc1ccc2c(NCCN3CCN(c4ccccn4)CC3)ccnc2c1` [7-chloro-N-(2-(4-(pyridin-2-yl)piperazin-1-yl)ethyl)quinolin-4-amine], for which the results for the IC50 in data set [1] (setting [7]), in data set [2] (setting [8]) and in data set [3] (setting [9]) were 4.57 nM, 12.2 nM and 3.9 nM, respectively.
`O=[N+]([O-])c1ccc(N2CCN(CCCNc3ccnc4cc(Cl)ccc34)CC2)c([N+](=O)[O-])c1` [7-chloro-N-(3-(4-(2,4-dinitrophenyl)piperazin-1-yl)propyl)quinolin-4-amine]: the IC50 amounted to 0.3 nM in data set [1] (D6, Erythrocyte, 72 h); 0.35 nM in data set [2] (7G8, Erythrocyte, 72 h); 0.47 nM in data set [3] (DD2, Erythrocyte, 72 h).
Turning to `Clc1ccc2c(NCCCN3CCN(c4ccc(Cl)c(Cl)c4)CC3)ccnc2c1` [7-chloro-N-(3-(4-(3,4-dichlorophenyl)piperazin-1-yl)propyl)quinolin-4-amine], the IC50 in data set [1] (D6, Erythrocyte, 72 h) was 0.1 nM; in data set [2] (7G8, Erythrocyte, 72 h), 0.28 nM; in data set [3] (DD2, Erythrocyte, 72 h), 0.9 nM.
As for `O=[N+]([O-])c1cnc(N2CCN(CCCNc3ccnc4cc(Cl)ccc34)CC2)c([N+](=O)[O-])c1` [7-chloro-N-(3-(4-(3,5-dinitropyridin-2-yl)piperazin-1-yl)propyl)quinolin-4-amine], the IC50 in data set [1] (setting [7]) was 0.45 nM; in data set [2] (setting [8]), 0.9 nM; in data set [3] (setting [9]), 0.85 nM.
In the same order, the values of `FC(F)(F)c1ccc(N2CCN(CCCNc3ccnc4cc(Cl)ccc34)CC2)cc1` [7-chloro-N-(3-(4-(4-(trifluoromethyl)phenyl)piperazin-1-yl)propyl)quinolin-4-amine] are 0.005 nM, 0.2 nM and 0.17 nM.
For `Clc1ccc(N2CCN(CCCNc3ccnc4cc(Cl)ccc34)CC2)cc1` [7-chloro-N-(3-(4-(4-chlorophenyl)piperazin-1-yl)propyl)quinolin-4-amine], the IC50 in [1] (D6, Erythrocyte, 72 h) was 0.005 nM; in [2] (7G8, Erythrocyte, 72 h), 0.09 nM; in data set [3] (DD2, Erythrocyte, 72 h), 0.33 nM.
Consider `Fc1ccc(N2CCN(CCCNc3ccnc4cc(Cl)ccc34)CC2)cc1` [7-chloro-N-(3-(4-(4-fluorophenyl)piperazin-1-yl)propyl)quinolin-4-amine], for which the figures for the IC50 in data set [1] (setting [7]), in [2] (setting [8]) and in data set [3] (setting [9]) were 0.14 nM, 0.3 nM and 0.8 nM, respectively.
Turning to `COc1ccc(N2CCN(CCCNc3ccnc4cc(Cl)ccc34)CC2)cc1` [7-chloro-N-(3-(4-(4-methoxyphenyl)piperazin-1-yl)propyl)quinolin-4-amine], the results for the IC50 in data set [1] (setting [7]), in data set [2] (setting [8]) and in [3] (setting [9]) were 0.1 nM, 0.3 nM and 0.48 nM, respectively.
Regarding `O=[N+]([O-])c1ccc(N2CCN(CCCNc3ccnc4cc(Cl)ccc34)CC2)cc1` [7-chloro-N-(3-(4-(4-nitrophenyl)piperazin-1-yl)propyl)quinolin-4-amine], the IC50 is 0.8 nM in data set [1] (D6, Erythrocyte, 72 h); 0.4 nM in data set [2] (7G8, Erythrocyte, 72 h); 1.14 nM in data set [3] (DD2, Erythrocyte, 72 h).
For `FC(F)(F)c1ccc(N2CCN(CCCNc3ccnc4cc(Cl)ccc34)CC2)nc1` [7-chloro-N-(3-(4-(5-(trifluoromethyl)pyridin-2-yl)piperazin-1-yl)propyl)quinolin-4-amine], the IC50 in data set [1] (setting [7]) was 0.5 nM; in data set [2] (setting [8]), 1 nM; in data set [3] (setting [9]), 0.83 nM.
As for `O=[N+]([O-])c1ccc(N2CCN(CCCNc3ccnc4cc(Cl)ccc34)CC2)nc1` [7-chloro-N-(3-(4-(5-nitropyridin-2-yl)piperazin-1-yl)propyl)quinolin-4-amine], the IC50 in data set [1] (setting [7]) was 0.26 nM; in [2] (setting [8]), 0.45 nM; in data set [3] (setting [9]), 0.48 nM.
In the same order, the values of `Clc1ccc2c(NCCCN3CCN(c4cccnc4)CC3)ccnc2c1` [7-chloro-N-(3-(4-(pyridin-3-yl)piperazin-1-yl)propyl)quinolin-4-amine] are 2.07 nM, 2.9 nM and 1.1 nM.
In the same order, the values of `Clc1ccc2c(NCCCN3CCN(c4ccncc4)CC3)ccnc2c1` [7-chloro-N-(3-(4-(pyridin-4-yl)piperazin-1-yl)propyl)quinolin-4-amine] are 2.07 nM, 6.8 nM and 2 nM.
The matching figures for `Clc1ccc2c(NCCCN3CCN(c4ncccn4)CC3)ccnc2c1` [7-chloro-N-(3-(4-(pyrimidin-2-yl)piperazin-1-yl)propyl)quinolin-4-amine]: 1.3 nM, 3.3 nM and 1 nM.
As for `Cc1ccc(N2CCN(CCCNc3ccnc4cc(Cl)ccc34)CC2)cc1` [7-chloro-N-(3-(4-p-tolylpiperazin-1-yl)propyl)quinolin-4-amine], the IC50 came out at 0.11 nM in data set [1] (setting [7]), 0.3 nM in [2] (setting [8]) and 0.86 nM in [3] (setting [9]).
In the case of `Clc1ccc2c(NCCCN3CCN(c4ccccc4)CC3)ccnc2c1` [7-chloro-N-(3-(4-phenylpiperazin-1-yl)propyl)quinolin-4-amine], the IC50 in [1] (D6, Erythrocyte, 72 h) was below 2.5 nM; in data set [3] (DD2, Erythrocyte, 72 h) it was below 2.5 nM. In data set [4], the Cytotoxicity is 6400 nM.
As for `CC1(C)N=C(N)N=C(N)N1c1ccc(Cl)cc1` [Cycloguanil], the “Drug susceptibility of P. falciparum strain D6” value with P. falciparum strain D6 is on record as “S”. Besides, the “Drug susceptibility of P. falciparum strain Dd2” value in the data set on P. falciparum strain Dd2 is given as “S”. Further, in the data set with P. falciparum strain W2, the “Drug susceptibility of P. falciparum strain W2” value is “R”. In addition, the “Drug susceptibility of P. falciparum strain FCR3” value in data set [5] is on record as “S”.
On to `OC(c1cc(C(F)(F)F)nc2c(C(F)(F)F)cccc12)C1CCCCN1` (stereo not shown) [Mefloquine], for which the “Drug susceptibility of P. falciparum strain D6” value with P. falciparum strain D6 was “S/R”. The “Drug susceptibility of P. falciparum strain TM91C235” value in data set [6] is given as “R”. Also, in the data set with P. falciparum strain Dd2, the “Drug susceptibility of P. falciparum strain Dd2” value is “R”. In addition, the “Drug susceptibility of P. falciparum strain W2” value with P. falciparum strain W2 is “S”. The “Drug susceptibility of P. falciparum strain FCR3” value in data set [5] was “S”.
Turning to `Nc1ccc(N2CCN(CCCNc3ccnc4cc(Cl)ccc34)CC2)cc1` [N-(3-(4-(4-aminophenyl)piperazin-1-yl)propyl)-7-chloroquinolin-4-amine], the IC50 stood at 1.8 nM in data set [1] (D6, Erythrocyte, 72 h); 3.2 nM in data set [2] (7G8, Erythrocyte, 72 h); 3.16 nM in [3] (DD2, Erythrocyte, 72 h).
`Clc1ccc2c(NCCCN3CCN(c4ccccc4-c4ccccc4)CC3)ccnc2c1` [N-(3-(4-(biphenyl-2-yl)piperazin-1-yl)propyl)-7-chloroquinolin-4-amine]: the IC50 in data set [1] (D6, Erythrocyte, 72 h) is 1.2 nM; in data set [3] (DD2, Erythrocyte, 72 h), 2.6 nM. In data set [4], this molecule showed a Cytotoxicity of 1700 nM.
In the case of `Clc1ccc2c(NCCCN3CCN(c4cccc(-c5ccccc5)c4)CC3)ccnc2c1` [N-(3-(4-(biphenyl-3-yl)piperazin-1-yl)propyl)-7-chloroquinolin-4-amine], the IC50 stood at 0.94 nM in data set [1] (D6, Erythrocyte, 72 h) and 1.8 nM in [3] (DD2, Erythrocyte, 72 h). In data set [4], this molecule yielded a Cytotoxicity of 2100 nM.
Take `Clc1ccc2c(NCCCN3CCN(c4ccc(-c5ccccc5)cc4)CC3)ccnc2c1` [N-(3-(4-(biphenyl-4-yl)piperazin-1-yl)propyl)-7-chloroquinolin-4-amine]: the IC50 in [1] (D6, Erythrocyte, 72 h) turned out to be 0.1 nM; in data set [2] (7G8, Erythrocyte, 72 h) it was 0.13 nM; in [3] (DD2, Erythrocyte, 72 h), 0.36 nM. The molecule further gave a Cytotoxicity in data set [4] of 2200 nM.

What is called IC50 is the concentration that inhibits the measured activity by half.
